Columns and labels:
[1] = target: ^GDPKRAS^WT (Homo sapiens, UniProt P01116); assay: MST binding to GDP-bound KRAS WT; conditions: GDP state
[2] = target: ^GDPKRAS^G12D (Homo sapiens, UniProt P01116, G12D); assay: MST binding to GDP-bound KRAS G12D; conditions: GDP state
[3] = target: HRAS^WT (Homo sapiens, UniProt P01112); assay: MST binding to HRAS WT; conditions: GDP and GTP-bound forms
[4] = target: NRAS^WT (Homo sapiens, UniProt P01111); assay: MST binding to NRAS WT; conditions: GDP and GTP-bound forms
Sequence of NRAS^WT (P01111 1-166): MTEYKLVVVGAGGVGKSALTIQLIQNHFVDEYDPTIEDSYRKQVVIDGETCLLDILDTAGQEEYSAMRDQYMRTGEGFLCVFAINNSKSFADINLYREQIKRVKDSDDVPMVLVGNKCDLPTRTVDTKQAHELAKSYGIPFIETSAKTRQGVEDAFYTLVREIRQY

[5] = target: T1, Rap1b (Homo sapiens, UniProt P61224); assay: MST binding to control GTPase Rap1b; conditions: control RAS-related small GTPase
T1 sequence (P61224 1-166): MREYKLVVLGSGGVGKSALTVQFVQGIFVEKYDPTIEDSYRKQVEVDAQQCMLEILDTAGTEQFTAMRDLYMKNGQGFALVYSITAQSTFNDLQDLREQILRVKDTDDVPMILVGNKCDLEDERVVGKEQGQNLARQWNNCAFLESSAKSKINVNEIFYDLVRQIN

[6] = system: BHK cells expressing KRAS^G12D; assay: Western analysis of cell signaling in BHK cells expressing KRAS G12D; format: cell-based, hamster
[7] = system: BHK cells expressing KRAS^G12V; assay: Western analysis of cell signaling in BHK cells expressing KRAS G12V; format: cell-based, hamster
[8] = system: BHK cells expressing HRAS^G12V; assay: Western analysis of cell signaling in BHK cells expressing HRAS G12V; format: cell-based, hamster
[9] = target: KRAS–Raf^RBD interaction (Homo sapiens, UniProt P01116); assay: Fluorescence polarization of KRAS binding to GST-Raf RBD; format: biochemical; conditions: 1 μM compound
[10] = target: KRAS^G12D–Raf^RBD interaction (Homo sapiens, UniProt P01116, G12D); assay: Pull-down of GFP-KRAS G12D by GST-Raf RBD in cell lysates; format: biochemical; conditions: 1 μM compound
[11] = target: KRAS^G12D–cRaf interaction (Homo sapiens, UniProt P01116, G12D); assay: FLIM-FRET of GFP-KRAS G12D with RFP-cRaf; format: cell-based, hamster; conditions: 1 μM compound
[12] = target: KRAS^G12D and RBD interaction (Homo sapiens, UniProt P01116, G12D); assay: FLIM-FRET of GFP-KRAS G12D with mCherry-RBD in BHK cells; format: cell-based, hamster; conditions: 1 μM compound for 2 h; ∼1.93 ns untreated, ∼2.3 ns without RBD
[13] = target: HRAS^G12V with Raf^RBD interaction (Homo sapiens, UniProt P01112, G12V); assay: FLIM-FRET of GFP-HRAS G12V with mCherry-RBD in BHK cells; format: cell-based, hamster; conditions: 1 μM compound
[14] = system: lung cancer cells harboring KRAS^G12D or KRAS^G12V; assay: CyQUANT proliferation, lung cancer cells with mutant KRAS; format: cell-based; conditions: 5 μM compound, 72 h
[15] = system: lung cancer cells with wild-type KRAS; assay: CyQUANT proliferation, lung cancer cells with wild-type KRAS; format: cell-based; conditions: 5 μM compound, 72 h
[16] = system: oral cancer cells with or without mutant HRAS; assay: CyQUANT proliferation, oral cancer cells; format: cell-based; conditions: 5 μM compound, 72 h
[17] = target: KRASWT (Homo sapiens, UniProt P01116); assay: Intrinsic nucleotide exchange; format: biochemical; conditions: 1 μM compound
[18] = target: T2, KRAS and SOS (Homo sapiens, UniProt P01116); assay: SOS-mediated nucleotide exchange; format: biochemical; conditions: 1 μM compound
[19] = target: KRAS (Homo sapiens, UniProt P01116); assay: Intrinsic nucleotide; format: biochemical; conditions: 1 μM compound
[20] = target: T2, KRAS and SOS; assay: SOS-mediated nucleotide; format: biochemical

Cc1nn2c(N3CCN(CCO)CC3)cc(-c3ccccc3)nc2c1-c1ccccc1 [Compound 11, 2-[4-(8-methyl-3,9-diphenyl-2,6,7-triazabicyclo[4.3.0]nona-2,4,7,9-tetraen-5-yl)piperazin-1-yl]ethanol]
binding detected by MST [1]: very weak or no binding
binding detected by MST [2]: very weak or no binding
binding detected by MST [3]: very weak or no binding
binding detected by MST [4]: very weak or no binding
binding detected by MST [5]: very weak or no binding
drop in p-ERK levels ([6]; 1 μM, 3 h treatment): about 50%
reduction of p-ERK levels ([6]; 5 μM, expanded concentration range): ~50%
concentrations at which p-ERK levels decreased ([6]; primary western screen): ≥ 1 µM
effect on p-AKT levels (AKT pathway signaling) ([6]; western): inhibits signaling through the AKT pathway but to a lesser extent than the MAPK pathway
effect on p-ERK and p-cRaf levels [7]: dose-dependently decreases
effect on p-AKT levels ([8]; western): no statistically significant effect
effect on p-ERK and p-cRaf levels ([8]; western, ligand concentration range tested): less effect
fold reduction of affinity of KRAS to Raf^RBD [9]: ~13 fold
reduction of polarization (RAS–Raf^RBD interaction) ([9]; at 2 μM GST–Raf^RBD): > 80%
decrease in GFP–KRAS^G12D levels pulled down [10]: > 50%
quenching of GFP fluorescence lifetime (KRAS^G12D–cRaf interaction) [11]: significantly reduced
GFP fluorescence lifetime [12]: ~2.02 ns
effect on interaction of HRAS^G12V with Raf^RBD [13]: opposite albeit small effect
growth relative to DMSO control [14]: 30–35%
growth relative to DMSO control [15]: 60–80%
growth relative to DMSO control [16]: 60–80%
maximum reduction in rate [17]: ≤ 5%
maximum reduction in rate [18]: ≤ 5%
maximum reduction in rate [19]: ≤ 5%
effect on SOS-mediated nucleotide release rate [20]: only modestly decreased
maximum reduction in rate ([20]; 1 μM compound): ≤ 5%

N#CC(=C(/N)Sc1ccccc1N)/C(C#N)=C(/N)Sc1ccccc1N [Compound U0126, reference compound]
effect on MAPK signaling ([8]; 10 μM): almost completely abolished
